{"source": "paper PMC10507085", "about": "“Pharmacological inhibition of TBK1/IKKε blunts immunopathology in a murine model of SARS-CoV-2 infection” (Nature Communications, 2023)", "test_in_all_cases": "biochemical", "design_in_all_cases": "KINOMEscan competition binding, DNA-tagged kinase against immobilised ligand, qPCR read-out", "conditions_in_all_cases": "read-out: Percent Control", "key": {"ZAP70": {"target": "ZAP70 (Homo sapiens, UniProt P43403)"}, "MAPK15": {"target": "MAPK15 (Homo sapiens, UniProt Q8TD08)"}, "HIPK1": {"target": "HIPK1 (Homo sapiens, UniProt Q86Z02)"}, "[1]": {"target": "T1, TYK2(JH2domain-pseudokinase) (Homo sapiens, UniProt P29597)", "T1 construct": "JH2 domain pseudokinase", "T1 sequence (P29597 whole entry, the tested form may be a part)": "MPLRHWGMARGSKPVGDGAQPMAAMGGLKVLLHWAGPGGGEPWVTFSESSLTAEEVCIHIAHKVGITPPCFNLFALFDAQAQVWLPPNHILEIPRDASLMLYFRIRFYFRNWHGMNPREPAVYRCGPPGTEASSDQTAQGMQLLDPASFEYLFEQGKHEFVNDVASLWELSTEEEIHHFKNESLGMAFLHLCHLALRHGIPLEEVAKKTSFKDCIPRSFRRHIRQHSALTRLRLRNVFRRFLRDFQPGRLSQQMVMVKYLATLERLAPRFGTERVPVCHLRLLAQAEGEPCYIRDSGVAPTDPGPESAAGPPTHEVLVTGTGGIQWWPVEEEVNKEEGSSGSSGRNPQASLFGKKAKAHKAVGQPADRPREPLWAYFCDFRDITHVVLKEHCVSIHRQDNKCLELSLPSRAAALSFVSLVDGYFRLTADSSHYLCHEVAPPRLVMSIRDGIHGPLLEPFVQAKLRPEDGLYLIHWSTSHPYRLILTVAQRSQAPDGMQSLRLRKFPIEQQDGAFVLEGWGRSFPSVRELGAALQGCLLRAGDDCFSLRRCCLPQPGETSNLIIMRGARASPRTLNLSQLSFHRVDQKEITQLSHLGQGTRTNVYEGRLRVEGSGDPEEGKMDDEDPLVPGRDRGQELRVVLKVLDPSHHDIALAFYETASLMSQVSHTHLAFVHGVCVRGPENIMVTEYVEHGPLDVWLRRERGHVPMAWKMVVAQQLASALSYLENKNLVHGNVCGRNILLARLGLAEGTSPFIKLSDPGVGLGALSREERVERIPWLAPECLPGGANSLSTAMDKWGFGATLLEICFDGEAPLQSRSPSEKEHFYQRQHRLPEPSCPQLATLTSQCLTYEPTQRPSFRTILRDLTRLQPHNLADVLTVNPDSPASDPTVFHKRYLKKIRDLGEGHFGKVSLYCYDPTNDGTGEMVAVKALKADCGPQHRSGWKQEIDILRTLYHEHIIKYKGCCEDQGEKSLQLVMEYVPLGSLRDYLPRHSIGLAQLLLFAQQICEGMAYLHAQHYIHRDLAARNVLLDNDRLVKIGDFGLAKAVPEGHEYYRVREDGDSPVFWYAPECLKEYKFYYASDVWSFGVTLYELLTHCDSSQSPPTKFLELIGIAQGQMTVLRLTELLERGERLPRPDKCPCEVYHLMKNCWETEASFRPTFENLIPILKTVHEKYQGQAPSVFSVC"}, "MAP2K2": {"target": "MAP2K2 (Homo sapiens, UniProt P36507)", "sequence (P36507 whole entry)": "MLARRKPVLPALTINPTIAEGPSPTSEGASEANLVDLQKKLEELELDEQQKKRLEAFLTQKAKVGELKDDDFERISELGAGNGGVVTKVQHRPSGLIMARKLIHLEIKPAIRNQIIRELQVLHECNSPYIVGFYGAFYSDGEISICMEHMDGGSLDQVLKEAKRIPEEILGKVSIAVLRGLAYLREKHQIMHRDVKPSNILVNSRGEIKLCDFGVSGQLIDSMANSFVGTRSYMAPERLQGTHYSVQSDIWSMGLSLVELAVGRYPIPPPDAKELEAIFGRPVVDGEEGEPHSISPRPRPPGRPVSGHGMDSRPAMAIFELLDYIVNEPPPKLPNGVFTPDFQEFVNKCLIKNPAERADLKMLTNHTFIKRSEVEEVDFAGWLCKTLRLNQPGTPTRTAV"}, "IGF1R": {"target": "IGF1R (Homo sapiens, UniProt P08069)", "sequence (P08069 whole entry)": "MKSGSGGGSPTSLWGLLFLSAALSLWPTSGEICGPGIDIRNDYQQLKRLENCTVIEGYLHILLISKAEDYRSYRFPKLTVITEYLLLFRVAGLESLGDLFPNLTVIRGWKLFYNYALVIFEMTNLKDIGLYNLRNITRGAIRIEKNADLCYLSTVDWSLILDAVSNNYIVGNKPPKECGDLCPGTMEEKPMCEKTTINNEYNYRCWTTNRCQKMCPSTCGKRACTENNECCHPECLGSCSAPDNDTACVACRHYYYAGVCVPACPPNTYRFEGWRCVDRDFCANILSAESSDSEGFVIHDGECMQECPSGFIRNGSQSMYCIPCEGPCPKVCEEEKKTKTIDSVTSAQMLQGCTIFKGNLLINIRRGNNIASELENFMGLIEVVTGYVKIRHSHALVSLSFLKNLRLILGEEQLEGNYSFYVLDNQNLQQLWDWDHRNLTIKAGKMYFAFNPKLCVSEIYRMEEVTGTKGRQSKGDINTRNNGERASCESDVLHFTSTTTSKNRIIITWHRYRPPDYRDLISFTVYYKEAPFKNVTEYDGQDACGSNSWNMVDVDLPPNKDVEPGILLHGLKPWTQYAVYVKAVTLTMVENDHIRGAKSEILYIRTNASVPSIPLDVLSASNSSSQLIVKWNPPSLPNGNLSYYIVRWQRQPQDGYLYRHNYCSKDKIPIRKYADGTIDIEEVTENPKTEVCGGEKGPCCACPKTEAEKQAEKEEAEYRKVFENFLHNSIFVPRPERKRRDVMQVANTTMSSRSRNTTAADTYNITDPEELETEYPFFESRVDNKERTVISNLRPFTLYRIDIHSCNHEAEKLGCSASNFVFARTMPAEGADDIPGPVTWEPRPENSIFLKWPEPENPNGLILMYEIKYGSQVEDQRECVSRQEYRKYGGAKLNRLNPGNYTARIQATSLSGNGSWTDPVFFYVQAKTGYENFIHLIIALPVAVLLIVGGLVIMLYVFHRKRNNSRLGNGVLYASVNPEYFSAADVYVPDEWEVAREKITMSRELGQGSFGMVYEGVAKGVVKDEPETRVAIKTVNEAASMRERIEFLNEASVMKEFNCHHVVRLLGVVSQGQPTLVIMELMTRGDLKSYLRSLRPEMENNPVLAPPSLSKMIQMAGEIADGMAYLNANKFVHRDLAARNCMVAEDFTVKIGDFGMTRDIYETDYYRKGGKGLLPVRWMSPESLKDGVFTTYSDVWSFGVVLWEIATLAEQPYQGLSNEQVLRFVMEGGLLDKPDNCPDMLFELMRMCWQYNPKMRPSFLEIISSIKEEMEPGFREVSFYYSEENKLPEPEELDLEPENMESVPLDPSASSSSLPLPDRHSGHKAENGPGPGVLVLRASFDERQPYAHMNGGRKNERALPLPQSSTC"}, "MARK1": {"target": "MARK1 (Homo sapiens, UniProt Q9P0L2)", "sequence (Q9P0L2 whole entry)": "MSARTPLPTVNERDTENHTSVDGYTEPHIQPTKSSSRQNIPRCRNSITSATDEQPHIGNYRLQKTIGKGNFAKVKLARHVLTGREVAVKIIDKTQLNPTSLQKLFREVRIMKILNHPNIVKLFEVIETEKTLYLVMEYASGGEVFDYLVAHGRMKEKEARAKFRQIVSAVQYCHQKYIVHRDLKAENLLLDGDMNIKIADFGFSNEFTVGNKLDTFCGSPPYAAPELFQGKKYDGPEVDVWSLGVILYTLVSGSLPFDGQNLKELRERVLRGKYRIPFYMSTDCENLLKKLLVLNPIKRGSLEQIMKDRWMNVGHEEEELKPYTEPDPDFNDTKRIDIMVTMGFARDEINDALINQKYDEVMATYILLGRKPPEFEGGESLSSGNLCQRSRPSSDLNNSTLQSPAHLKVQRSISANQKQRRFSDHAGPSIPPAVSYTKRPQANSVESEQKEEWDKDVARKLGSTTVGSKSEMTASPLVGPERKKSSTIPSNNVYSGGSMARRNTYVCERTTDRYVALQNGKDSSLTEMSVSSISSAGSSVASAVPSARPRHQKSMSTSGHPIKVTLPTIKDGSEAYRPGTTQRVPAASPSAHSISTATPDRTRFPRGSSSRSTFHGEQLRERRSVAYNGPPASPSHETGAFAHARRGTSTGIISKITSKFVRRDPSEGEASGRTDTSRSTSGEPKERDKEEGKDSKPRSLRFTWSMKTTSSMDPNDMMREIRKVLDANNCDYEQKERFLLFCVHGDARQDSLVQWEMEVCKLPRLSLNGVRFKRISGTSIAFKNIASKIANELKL"}, "MAP4K1": {"target": "MAP4K1 (Homo sapiens, UniProt Q92918)"}, "EPHB4": {"target": "EPHB4 (Homo sapiens, UniProt P54760)"}, "KIAA0999": {"target": "T2, KIAA0999 (Homo sapiens, UniProt Q9Y2K2)", "T2 construct": "gene SIK3"}, "PKN1": {"target": "PKN1 (Homo sapiens, UniProt Q16512)"}, "KIT": {"target": "KIT (Homo sapiens, UniProt P10721)"}, "ACVR2A": {"target": "ACVR2A (Homo sapiens, UniProt P27037)"}, "[2]": {"target": "T3, RSK3(Kin.Dom.2-C-terminal) (Homo sapiens, UniProt Q15349)", "T3 construct": "gene RPS6KA2; Kin.Dom.2 C-terminal"}, "EPHA1": {"target": "EPHA1 (Homo sapiens, UniProt P21709)", "sequence (P21709 whole entry)": "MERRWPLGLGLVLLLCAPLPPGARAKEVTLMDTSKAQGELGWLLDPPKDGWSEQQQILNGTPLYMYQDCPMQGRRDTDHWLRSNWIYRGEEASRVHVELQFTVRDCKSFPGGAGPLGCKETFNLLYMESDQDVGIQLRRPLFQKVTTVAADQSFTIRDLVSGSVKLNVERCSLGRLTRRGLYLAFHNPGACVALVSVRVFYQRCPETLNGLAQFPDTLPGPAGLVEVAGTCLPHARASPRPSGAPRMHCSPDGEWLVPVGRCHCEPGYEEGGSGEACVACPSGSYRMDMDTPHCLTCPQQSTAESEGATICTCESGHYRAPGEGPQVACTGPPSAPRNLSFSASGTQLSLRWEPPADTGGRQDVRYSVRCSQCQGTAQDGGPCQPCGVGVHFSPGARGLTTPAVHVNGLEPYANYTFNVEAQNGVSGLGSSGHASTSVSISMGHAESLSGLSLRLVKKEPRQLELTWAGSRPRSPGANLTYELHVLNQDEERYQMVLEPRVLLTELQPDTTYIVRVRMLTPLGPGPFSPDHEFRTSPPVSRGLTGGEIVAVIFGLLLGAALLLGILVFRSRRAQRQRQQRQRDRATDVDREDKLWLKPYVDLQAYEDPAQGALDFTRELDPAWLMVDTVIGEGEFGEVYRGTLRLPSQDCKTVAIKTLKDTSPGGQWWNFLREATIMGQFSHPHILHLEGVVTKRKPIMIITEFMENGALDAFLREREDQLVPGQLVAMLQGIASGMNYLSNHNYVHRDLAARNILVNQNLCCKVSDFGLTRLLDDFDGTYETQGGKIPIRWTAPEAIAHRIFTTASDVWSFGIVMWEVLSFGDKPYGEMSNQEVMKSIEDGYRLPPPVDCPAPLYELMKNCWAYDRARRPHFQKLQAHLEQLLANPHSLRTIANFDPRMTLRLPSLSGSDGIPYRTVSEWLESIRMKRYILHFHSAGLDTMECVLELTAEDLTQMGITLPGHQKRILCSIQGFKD"}, "SRC": {"target": "SRC (Homo sapiens, UniProt P12931)"}, "MAP2K3": {"target": "MAP2K3 (Homo sapiens, UniProt P46734)", "sequence (P46734 whole entry)": "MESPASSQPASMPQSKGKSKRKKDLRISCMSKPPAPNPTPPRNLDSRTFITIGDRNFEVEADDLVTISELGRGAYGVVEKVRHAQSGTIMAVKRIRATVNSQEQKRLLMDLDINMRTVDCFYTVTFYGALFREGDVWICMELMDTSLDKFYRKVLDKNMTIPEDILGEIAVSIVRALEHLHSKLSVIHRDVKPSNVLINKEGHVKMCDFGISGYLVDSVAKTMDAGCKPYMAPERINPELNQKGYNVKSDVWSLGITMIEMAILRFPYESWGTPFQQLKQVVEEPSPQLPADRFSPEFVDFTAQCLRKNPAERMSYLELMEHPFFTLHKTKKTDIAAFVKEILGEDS"}, "PTK2B": {"target": "PTK2B (Homo sapiens, UniProt Q14289)"}, "PLK2": {"target": "PLK2 (Homo sapiens, UniProt Q9NYY3)"}, "DSTYK": {"target": "DSTYK (Homo sapiens, UniProt Q6XUX3)"}}}
{"smiles": "Oc1ccc(C2=Cc3ccc(O)cc3OC2)cc1", "note": "[compound 1, idronoxil]", "values": [{"measurement": "remaining binding at 10 µM", "setting": "ZAP70", "result": 78, "unit": "%"}, {"measurement": "remaining binding at 10 µM", "setting": "MAPK15", "result": 49, "unit": "%"}, {"measurement": "remaining binding at 10 µM", "setting": "HIPK1", "result": 65, "unit": "%"}, {"measurement": "remaining binding at 10 µM", "setting": "[1]", "result": 8.3, "unit": "%"}, {"measurement": "remaining binding at 10 µM", "setting": "MAP2K2", "result": 79, "unit": "%"}, {"measurement": "remaining binding at 10 µM", "setting": "IGF1R", "result": 84, "unit": "%"}, {"measurement": "remaining binding at 10 µM", "setting": "MARK1", "result": 91, "unit": "%"}, {"measurement": "remaining binding at 10 µM", "setting": "MAP4K1", "result": 78, "unit": "%"}, {"measurement": "remaining binding at 10 µM", "setting": "EPHB4", "result": 90, "unit": "%"}, {"measurement": "remaining binding at 10 µM", "setting": "KIAA0999", "result": 89, "unit": "%"}, {"measurement": "remaining binding at 10 µM", "setting": "PKN1", "result": 66, "unit": "%"}, {"measurement": "remaining binding at 10 µM", "setting": "KIT", "result": 19, "unit": "%"}, {"measurement": "remaining binding at 10 µM", "setting": "ACVR2A", "result": 66, "unit": "%"}, {"measurement": "remaining binding at 10 µM", "setting": "[2]", "result": 75, "unit": "%"}, {"measurement": "remaining binding at 10 µM", "setting": "EPHA1", "result": 69, "unit": "%"}, {"measurement": "remaining binding at 10 µM", "setting": "SRC", "result": 47, "unit": "%"}, {"measurement": "remaining binding at 10 µM", "setting": "MAP2K3", "result": 56, "unit": "%"}, {"measurement": "remaining binding at 10 µM", "setting": "PTK2B", "result": 99, "unit": "%"}, {"measurement": "remaining binding at 10 µM", "setting": "PLK2", "result": 80, "unit": "%"}, {"measurement": "remaining binding at 10 µM", "setting": "DSTYK", "result": 74, "unit": "%"}]}
